# Laboratory results published in the kinase profiling compilation of Christmann-Franck et al. (2016).
# Experiments:
# Test in all cases: Caliper, Mobility shift assay off-chip
# AXL (human) = AXL (human) (UniProt P30530)
# DAPK3 (human) = DAPK3 (human) (UniProt O43293)
# [1] = system: EGFR (human), P00533 [T790M]
# TYRO3 (human) = TYRO3 (human) (UniProt Q06418)
# MERTK (human) = MERTK (human) (UniProt Q12866)
# TXK (human) = TXK (human) (UniProt P42681)
# [2] = system: FGFR3 (human), P22607 [K650E]
# EPHA8 (human) = EPHA8 (human) (UniProt P29322)
# JAK2 JH1 JH2 (human) = JAK2 JH1 JH2 (human) (UniProt O60674)
# PHKG2 (human) = PHKG2 (human) (UniProt P15735)
# BLK (human) = BLK (human) (UniProt P51451)
# YES1 (human) = YES1 (human) (UniProt P07947)
# MARK4 (human) = MARK4 (human) (UniProt Q96L34)
# ALK (human) = ALK (human) (UniProt Q9UM73)
# CSNK1G2 (human) = CSNK1G2 (human) (UniProt P78368)
# RPS6KA6 KD1 KD2 (human) = RPS6KA6 KD1 KD2 (human) (UniProt Q9UK32)
# [3] = system: EGFR (human), P00533 [T790M/L858R]
# EPHB1 (human) = EPHB1 (human) (UniProt P54762)
# ROCK1 (human) = ROCK1 (human) (UniProt Q13464)
# ITK (human) = ITK (human) (UniProt Q08881)
# DAPK1 (human) = DAPK1 (human) (UniProt P53355)
# DCLK1 (human) = DCLK1 (human) (UniProt O15075)
# CDK1 (human) = CDK1 (human) (UniProt P06493)
# MST1R (human) = MST1R (human) (UniProt Q04912)
# CAMK2A (human) = CAMK2A (human) (UniProt Q9UQM7)
# RET (human) = RET (human) (UniProt P07949)
# HIPK2 (human) = HIPK2 (human) (UniProt Q9H2X6)
# DYRK3 (human) = DYRK3 (human) (UniProt O43781)
# CDK5 CDK5R1 p25 (human) = CDK5 CDK5R1 p25 (human) (UniProt Q15078+Q00535)
# [4] = target: PRKAA2 PRKAB1 PRKAG1 (human) (UniProt Q9Y478+P54646+P54619)
# FGFR1 (human) = FGFR1 (human) (UniProt P11362)
# KIT (human) = KIT (human) (UniProt P10721)
# PTK2B (human) = PTK2B (human) (UniProt Q14289)
# HIPK2 (human), sequence (Q9H2X6 whole entry, looked up): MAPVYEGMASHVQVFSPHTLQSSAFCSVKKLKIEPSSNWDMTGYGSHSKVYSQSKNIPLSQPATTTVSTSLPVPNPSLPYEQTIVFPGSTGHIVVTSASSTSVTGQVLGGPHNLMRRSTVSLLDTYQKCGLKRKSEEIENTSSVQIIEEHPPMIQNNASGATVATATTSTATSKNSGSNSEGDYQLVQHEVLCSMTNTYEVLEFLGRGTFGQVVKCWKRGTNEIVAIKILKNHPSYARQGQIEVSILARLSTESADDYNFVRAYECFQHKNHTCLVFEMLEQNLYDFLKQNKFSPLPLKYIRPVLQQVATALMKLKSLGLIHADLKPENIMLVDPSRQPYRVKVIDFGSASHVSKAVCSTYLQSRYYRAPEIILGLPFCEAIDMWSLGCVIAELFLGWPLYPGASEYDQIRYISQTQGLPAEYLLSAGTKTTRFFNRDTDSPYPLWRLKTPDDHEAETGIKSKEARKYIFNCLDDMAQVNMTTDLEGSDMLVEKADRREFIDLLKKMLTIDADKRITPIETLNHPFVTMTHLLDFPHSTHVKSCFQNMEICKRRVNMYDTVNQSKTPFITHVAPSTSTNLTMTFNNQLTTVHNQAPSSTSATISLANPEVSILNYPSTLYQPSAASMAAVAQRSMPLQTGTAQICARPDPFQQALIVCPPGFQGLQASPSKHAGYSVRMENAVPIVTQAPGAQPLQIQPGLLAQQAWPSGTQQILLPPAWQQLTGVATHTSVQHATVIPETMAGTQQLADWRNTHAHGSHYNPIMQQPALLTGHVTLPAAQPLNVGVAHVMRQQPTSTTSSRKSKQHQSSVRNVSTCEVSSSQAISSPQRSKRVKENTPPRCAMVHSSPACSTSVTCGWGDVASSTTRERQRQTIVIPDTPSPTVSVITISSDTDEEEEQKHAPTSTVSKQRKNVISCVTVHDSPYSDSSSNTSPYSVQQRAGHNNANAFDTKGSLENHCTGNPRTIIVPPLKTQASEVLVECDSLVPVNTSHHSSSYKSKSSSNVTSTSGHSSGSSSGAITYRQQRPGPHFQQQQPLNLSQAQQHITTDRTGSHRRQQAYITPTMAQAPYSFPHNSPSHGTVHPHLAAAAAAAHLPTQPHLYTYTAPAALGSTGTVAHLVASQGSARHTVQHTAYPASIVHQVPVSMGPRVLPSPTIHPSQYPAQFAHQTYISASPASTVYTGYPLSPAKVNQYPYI
# ITK (human), sequence (Q08881 whole entry, looked up): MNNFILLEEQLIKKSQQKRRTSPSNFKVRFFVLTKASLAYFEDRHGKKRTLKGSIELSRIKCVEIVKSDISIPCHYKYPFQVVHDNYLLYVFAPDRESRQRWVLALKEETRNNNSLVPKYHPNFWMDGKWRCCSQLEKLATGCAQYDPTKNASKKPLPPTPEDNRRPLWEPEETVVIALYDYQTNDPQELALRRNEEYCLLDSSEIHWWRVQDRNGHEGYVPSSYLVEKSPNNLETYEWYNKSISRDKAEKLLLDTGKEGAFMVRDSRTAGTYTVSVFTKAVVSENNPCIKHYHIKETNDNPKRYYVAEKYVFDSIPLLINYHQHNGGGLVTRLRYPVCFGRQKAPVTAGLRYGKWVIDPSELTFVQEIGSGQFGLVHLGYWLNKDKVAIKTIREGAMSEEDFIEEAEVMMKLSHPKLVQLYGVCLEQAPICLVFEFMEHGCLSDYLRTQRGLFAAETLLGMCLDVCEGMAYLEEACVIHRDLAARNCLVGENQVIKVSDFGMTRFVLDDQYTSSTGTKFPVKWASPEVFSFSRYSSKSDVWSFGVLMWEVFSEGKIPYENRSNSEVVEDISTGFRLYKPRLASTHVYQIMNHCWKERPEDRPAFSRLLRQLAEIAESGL
# EGFR (human), P00533 [T790M/L858R], sequence (P00533 whole entry T790M/L858R, looked up): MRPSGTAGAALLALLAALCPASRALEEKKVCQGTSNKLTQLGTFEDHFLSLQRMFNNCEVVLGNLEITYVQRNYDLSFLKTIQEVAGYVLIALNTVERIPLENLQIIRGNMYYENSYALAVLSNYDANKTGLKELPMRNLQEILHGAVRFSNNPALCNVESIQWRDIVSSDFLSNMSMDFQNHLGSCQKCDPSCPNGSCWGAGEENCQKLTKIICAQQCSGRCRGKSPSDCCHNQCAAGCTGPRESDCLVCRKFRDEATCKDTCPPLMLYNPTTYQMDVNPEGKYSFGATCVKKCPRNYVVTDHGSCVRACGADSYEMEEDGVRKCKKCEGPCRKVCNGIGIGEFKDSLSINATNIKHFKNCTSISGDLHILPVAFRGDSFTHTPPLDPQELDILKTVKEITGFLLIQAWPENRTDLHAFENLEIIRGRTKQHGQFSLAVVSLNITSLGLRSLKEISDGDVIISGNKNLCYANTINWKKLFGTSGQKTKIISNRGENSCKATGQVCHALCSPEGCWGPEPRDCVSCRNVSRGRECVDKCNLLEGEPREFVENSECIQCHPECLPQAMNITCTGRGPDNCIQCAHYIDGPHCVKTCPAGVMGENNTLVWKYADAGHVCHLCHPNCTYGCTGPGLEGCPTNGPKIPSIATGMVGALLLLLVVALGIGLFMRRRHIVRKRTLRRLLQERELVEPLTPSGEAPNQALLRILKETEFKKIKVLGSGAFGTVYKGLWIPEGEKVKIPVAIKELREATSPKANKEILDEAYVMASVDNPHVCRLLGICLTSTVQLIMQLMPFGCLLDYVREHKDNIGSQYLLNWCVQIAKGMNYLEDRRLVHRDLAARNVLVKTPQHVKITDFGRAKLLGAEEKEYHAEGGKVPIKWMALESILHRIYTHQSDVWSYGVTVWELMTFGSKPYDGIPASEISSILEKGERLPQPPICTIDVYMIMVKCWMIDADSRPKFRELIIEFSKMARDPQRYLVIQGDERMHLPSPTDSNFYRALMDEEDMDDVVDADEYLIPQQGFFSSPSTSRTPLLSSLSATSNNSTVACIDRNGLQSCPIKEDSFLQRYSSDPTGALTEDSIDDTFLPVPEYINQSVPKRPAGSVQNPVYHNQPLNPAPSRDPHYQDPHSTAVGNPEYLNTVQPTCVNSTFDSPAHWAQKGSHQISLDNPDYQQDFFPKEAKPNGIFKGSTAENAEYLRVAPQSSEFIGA
# CDK5 CDK5R1 p25 (human), sequence (Q00535 whole entry, looked up): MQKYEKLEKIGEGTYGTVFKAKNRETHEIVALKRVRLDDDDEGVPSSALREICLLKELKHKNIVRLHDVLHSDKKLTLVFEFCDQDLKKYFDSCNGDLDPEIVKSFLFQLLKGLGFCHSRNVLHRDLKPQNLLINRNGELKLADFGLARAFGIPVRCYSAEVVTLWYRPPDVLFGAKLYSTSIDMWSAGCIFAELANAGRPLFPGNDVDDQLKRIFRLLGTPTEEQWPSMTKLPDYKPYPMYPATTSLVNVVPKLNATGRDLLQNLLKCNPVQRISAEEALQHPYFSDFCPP
# CDK5 CDK5R1 p25 (human), sequence (Q15078 whole entry, looked up): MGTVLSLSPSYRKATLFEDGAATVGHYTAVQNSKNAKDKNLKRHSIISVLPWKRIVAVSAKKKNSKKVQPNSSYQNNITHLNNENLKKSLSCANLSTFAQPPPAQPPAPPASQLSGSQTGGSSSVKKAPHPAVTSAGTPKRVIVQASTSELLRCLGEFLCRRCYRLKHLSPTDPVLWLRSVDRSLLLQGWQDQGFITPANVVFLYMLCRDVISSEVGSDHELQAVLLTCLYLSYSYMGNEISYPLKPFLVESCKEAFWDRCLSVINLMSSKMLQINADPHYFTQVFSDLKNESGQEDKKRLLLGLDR
# CSNK1G2 (human), sequence (P78368 whole entry, looked up): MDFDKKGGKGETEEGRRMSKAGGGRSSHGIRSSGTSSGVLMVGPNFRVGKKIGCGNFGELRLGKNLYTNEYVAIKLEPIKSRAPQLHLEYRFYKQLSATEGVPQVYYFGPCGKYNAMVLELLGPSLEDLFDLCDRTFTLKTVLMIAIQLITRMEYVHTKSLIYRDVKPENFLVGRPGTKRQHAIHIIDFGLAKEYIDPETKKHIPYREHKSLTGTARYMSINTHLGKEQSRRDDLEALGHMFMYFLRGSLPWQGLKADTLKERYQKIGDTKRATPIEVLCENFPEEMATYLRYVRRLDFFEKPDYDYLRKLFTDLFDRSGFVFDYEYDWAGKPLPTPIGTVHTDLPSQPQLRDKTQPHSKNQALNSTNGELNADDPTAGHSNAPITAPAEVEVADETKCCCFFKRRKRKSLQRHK
# CAMK2A (human), sequence (Q9UQM7 whole entry, looked up): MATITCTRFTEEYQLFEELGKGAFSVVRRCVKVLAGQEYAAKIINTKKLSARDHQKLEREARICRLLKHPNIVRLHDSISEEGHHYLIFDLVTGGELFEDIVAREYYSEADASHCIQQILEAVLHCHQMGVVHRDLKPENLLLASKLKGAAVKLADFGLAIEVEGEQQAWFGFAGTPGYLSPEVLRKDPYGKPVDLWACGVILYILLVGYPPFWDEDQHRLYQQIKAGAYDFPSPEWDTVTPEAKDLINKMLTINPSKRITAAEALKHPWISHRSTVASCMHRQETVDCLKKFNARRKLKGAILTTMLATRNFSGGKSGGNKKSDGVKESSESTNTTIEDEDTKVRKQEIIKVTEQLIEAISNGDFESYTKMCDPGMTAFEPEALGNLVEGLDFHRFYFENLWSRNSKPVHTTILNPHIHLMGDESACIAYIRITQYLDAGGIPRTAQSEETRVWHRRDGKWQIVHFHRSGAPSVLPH
# CDK1 (human), sequence (P06493 whole entry, looked up): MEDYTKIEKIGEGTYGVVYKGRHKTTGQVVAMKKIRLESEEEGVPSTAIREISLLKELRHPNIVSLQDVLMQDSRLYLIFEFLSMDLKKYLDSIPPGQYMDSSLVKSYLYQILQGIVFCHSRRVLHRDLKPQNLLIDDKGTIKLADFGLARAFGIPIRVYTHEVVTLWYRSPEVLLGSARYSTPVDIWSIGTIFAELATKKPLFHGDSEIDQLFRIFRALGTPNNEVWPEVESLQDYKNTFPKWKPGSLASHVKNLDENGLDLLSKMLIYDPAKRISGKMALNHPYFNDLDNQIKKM
smiles,measurement,setting,value
O=C(CCc1ccc2ccc3ncc(C4CCNCC4)cc3c(=O)c2c1)NCc1ccccn1,inhibition,AXL (human); compound 0.1 µM,6.1%
same,inhibition,AXL (human); compound 1.0 µM,20.3%
same,inhibition,DAPK3 (human); compound 0.1 µM,-1.7%
same,inhibition,DAPK3 (human); compound 1.0 µM,-4.5%
same,inhibition,[1]; compound 0.1 µM,1.6%
same,inhibition,[1]; compound 1.0 µM,-11.1%
same,inhibition,TYRO3 (human); compound 0.1 µM,4.1%
same,inhibition,TYRO3 (human); compound 1.0 µM,4.2%
same,inhibition,MERTK (human); compound 0.1 µM,2.5%
same,inhibition,MERTK (human); compound 1.0 µM,15.5%
same,inhibition,TXK (human); compound 0.1 µM,-5.1%
same,inhibition,TXK (human); compound 1.0 µM,-9.7%
same,inhibition,[2]; compound 0.1 µM,-1.7%
same,inhibition,[2]; compound 1.0 µM,2.1%
same,inhibition,EPHA8 (human); compound 0.1 µM,9.4%
same,inhibition,EPHA8 (human); compound 1.0 µM,5.1%
same,inhibition,JAK2 JH1 JH2 (human); compound 0.1 µM,-2.8%
same,inhibition,JAK2 JH1 JH2 (human); compound 1.0 µM,5.9%
same,inhibition,PHKG2 (human); compound 0.1 µM,1%
same,inhibition,PHKG2 (human); compound 1.0 µM,-4.4%
same,inhibition,BLK (human); compound 0.1 µM,-0.5%
same,inhibition,BLK (human); compound 1.0 µM,16.6%
same,inhibition,YES1 (human); compound 0.1 µM,-0.7%
same,inhibition,YES1 (human); compound 1.0 µM,-5.3%
same,inhibition,MARK4 (human); compound 0.1 µM,0%
same,inhibition,MARK4 (human); compound 1.0 µM,-3.4%
same,inhibition,ALK (human); compound 0.1 µM,6.9%
same,inhibition,ALK (human); compound 1.0 µM,-9.5%
same,inhibition,CSNK1G2 (human); compound 0.1 µM,2.7%
same,inhibition,CSNK1G2 (human); compound 1.0 µM,5.8%
same,inhibition,RPS6KA6 KD1 KD2 (human); compound 0.1 µM,5.9%
same,inhibition,RPS6KA6 KD1 KD2 (human); compound 1.0 µM,-8.4%
same,inhibition,[3]; compound 0.1 µM,-0.8%
same,inhibition,[3]; compound 1.0 µM,-3.6%
same,inhibition,EPHB1 (human); compound 0.1 µM,1%
same,inhibition,EPHB1 (human); compound 1.0 µM,3.3%
same,inhibition,ROCK1 (human); compound 0.1 µM,4.2%
same,inhibition,ROCK1 (human); compound 1.0 µM,8.2%
same,inhibition,ITK (human); compound 0.1 µM,-5%
same,inhibition,ITK (human); compound 1.0 µM,-1.8%
same,inhibition,DAPK1 (human); compound 0.1 µM,2.4%
same,inhibition,DAPK1 (human); compound 1.0 µM,0.1%
same,inhibition,DCLK1 (human); compound 0.1 µM,-26.1%
same,inhibition,DCLK1 (human); compound 1.0 µM,-5.4%
same,inhibition,CDK1 (human); compound 0.1 µM,-3.9%
same,inhibition,CDK1 (human); compound 1.0 µM,1.2%
same,inhibition,MST1R (human); compound 0.1 µM,-3.6%
same,inhibition,MST1R (human); compound 1.0 µM,20.5%
same,inhibition,CAMK2A (human); compound 0.1 µM,-8.9%
same,inhibition,CAMK2A (human); compound 1.0 µM,-3.1%
same,inhibition,RET (human); compound 0.1 µM,1.9%
same,inhibition,RET (human); compound 1.0 µM,2.8%
same,inhibition,HIPK2 (human); compound 0.1 µM,3.6%
same,inhibition,HIPK2 (human); compound 1.0 µM,3.9%
same,inhibition,DYRK3 (human); compound 0.1 µM,-1.4%
same,inhibition,DYRK3 (human); compound 1.0 µM,2.9%
same,inhibition,CDK5 CDK5R1 p25 (human); compound 0.1 µM,2.2%
same,inhibition,CDK5 CDK5R1 p25 (human); compound 1.0 µM,0.3%
same,inhibition,[4]; compound 0.1 µM,5.1%
same,inhibition,[4]; compound 1.0 µM,-1.5%
same,inhibition,FGFR1 (human); compound 0.1 µM,1.5%
same,inhibition,FGFR1 (human); compound 1.0 µM,-7.9%
same,inhibition,KIT (human); compound 0.1 µM,-1.6%
same,inhibition,KIT (human); compound 1.0 µM,6.6%
same,inhibition,PTK2B (human); compound 0.1 µM,10%
same,inhibition,PTK2B (human); compound 1.0 µM,2.5%
CN(c1ccc2ccc3ncc(-c4cnn(C)c4)cc3c(=O)c2c1)S(=O)(=O)NCc1ccccn1,inhibition,AXL (human); compound 0.1 µM,30.6%
same,inhibition,AXL (human); compound 1.0 µM,77.3%
same,inhibition,DAPK3 (human); compound 0.1 µM,5%
same,inhibition,DAPK3 (human); compound 1.0 µM,10.3%
same,inhibition,[1]; compound 0.1 µM,11.2%
same,inhibition,[1]; compound 1.0 µM,1.9%
same,inhibition,TYRO3 (human); compound 0.1 µM,20.2%
same,inhibition,TYRO3 (human); compound 1.0 µM,66.3%
same,inhibition,MERTK (human); compound 0.1 µM,52.7%
same,inhibition,MERTK (human); compound 1.0 µM,94.5%
same,inhibition,TXK (human); compound 0.1 µM,0.6%
same,inhibition,TXK (human); compound 1.0 µM,19%
same,inhibition,[2]; compound 0.1 µM,15.1%
same,inhibition,[2]; compound 1.0 µM,59.4%
same,inhibition,EPHA8 (human); compound 0.1 µM,-1.9%
same,inhibition,EPHA8 (human); compound 1.0 µM,4.6%
same,inhibition,JAK2 JH1 JH2 (human); compound 0.1 µM,-35.1%
same,inhibition,JAK2 JH1 JH2 (human); compound 1.0 µM,41.2%
same,inhibition,PHKG2 (human); compound 0.1 µM,17.8%
same,inhibition,PHKG2 (human); compound 1.0 µM,12.7%
same,inhibition,BLK (human); compound 0.1 µM,-30.4%
same,inhibition,BLK (human); compound 1.0 µM,29.2%
same,inhibition,YES1 (human); compound 0.1 µM,-7.2%
same,inhibition,YES1 (human); compound 1.0 µM,29.9%
same,inhibition,MARK4 (human); compound 0.1 µM,7.3%
same,inhibition,MARK4 (human); compound 1.0 µM,16%
same,inhibition,ALK (human); compound 0.1 µM,-0.1%
same,inhibition,ALK (human); compound 1.0 µM,12.2%
same,inhibition,CSNK1G2 (human); compound 0.1 µM,-9%
same,inhibition,CSNK1G2 (human); compound 1.0 µM,1.2%
same,inhibition,RPS6KA6 KD1 KD2 (human); compound 0.1 µM,0.5%
same,inhibition,RPS6KA6 KD1 KD2 (human); compound 1.0 µM,5.6%
same,inhibition,[3]; compound 0.1 µM,6.2%
same,inhibition,[3]; compound 1.0 µM,2.9%
same,inhibition,EPHB1 (human); compound 0.1 µM,1.8%
same,inhibition,EPHB1 (human); compound 1.0 µM,9.7%
same,inhibition,ROCK1 (human); compound 0.1 µM,14.4%
same,inhibition,ROCK1 (human); compound 1.0 µM,1.7%
same,inhibition,ITK (human); compound 0.1 µM,7%
same,inhibition,ITK (human); compound 1.0 µM,34.9%
same,inhibition,DAPK1 (human); compound 0.1 µM,3%
same,inhibition,DAPK1 (human); compound 1.0 µM,9.2%
same,inhibition,DCLK1 (human); compound 0.1 µM,3.5%
same,inhibition,DCLK1 (human); compound 1.0 µM,5.9%
same,inhibition,CDK1 (human); compound 0.1 µM,1.3%
same,inhibition,CDK1 (human); compound 1.0 µM,4.7%
same,inhibition,MST1R (human); compound 0.1 µM,23.8%
same,inhibition,MST1R (human); compound 1.0 µM,78.2%
same,inhibition,CAMK2A (human); compound 1.0 µM,4.4%
same,inhibition,RET (human); compound 0.1 µM,7.4%
same,inhibition,RET (human); compound 1.0 µM,44.1%
same,inhibition,HIPK2 (human); compound 0.1 µM,8.7%
same,inhibition,HIPK2 (human); compound 1.0 µM,14.7%
same,inhibition,DYRK3 (human); compound 0.1 µM,9.6%
same,inhibition,DYRK3 (human); compound 1.0 µM,21.5%
same,inhibition,CDK5 CDK5R1 p25 (human); compound 0.1 µM,-5.4%
same,inhibition,CDK5 CDK5R1 p25 (human); compound 1.0 µM,11.9%
same,inhibition,[4]; compound 0.1 µM,3.4%
same,inhibition,[4]; compound 1.0 µM,17.6%
same,inhibition,FGFR1 (human); compound 0.1 µM,-11.4%
same,inhibition,FGFR1 (human); compound 1.0 µM,26.7%
same,inhibition,KIT (human); compound 0.1 µM,-0.2%
same,inhibition,KIT (human); compound 1.0 µM,8.9%
same,inhibition,PTK2B (human); compound 0.1 µM,-3.9%
same,inhibition,PTK2B (human); compound 1.0 µM,3.2%
